Key:
[1] = target: T1, HflX-FL; HflX-WT (EcHflX) (Escherichia coli, UniProt P25519); experiment: mant fluorescence emission; format: binding; settings: labelled compound; 5 µM protein, 1 µM mant-ATP, pH 8.0, 5 mM MgCl2
T1 sequence (P25519 1-426): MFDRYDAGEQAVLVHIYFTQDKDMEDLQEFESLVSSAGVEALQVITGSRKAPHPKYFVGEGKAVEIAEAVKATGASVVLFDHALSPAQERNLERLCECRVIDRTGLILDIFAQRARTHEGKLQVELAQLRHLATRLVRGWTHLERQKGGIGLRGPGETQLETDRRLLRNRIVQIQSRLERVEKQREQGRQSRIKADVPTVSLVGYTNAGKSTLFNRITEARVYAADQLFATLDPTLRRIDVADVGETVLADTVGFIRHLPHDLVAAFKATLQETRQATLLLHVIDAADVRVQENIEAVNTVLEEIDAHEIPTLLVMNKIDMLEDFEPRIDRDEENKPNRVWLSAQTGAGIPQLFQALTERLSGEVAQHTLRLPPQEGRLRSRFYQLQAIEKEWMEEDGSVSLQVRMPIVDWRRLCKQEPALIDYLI

HflX-ND1 = target: T2, HflX-ND1 (Escherichia coli, UniProt P25519); experiment: mant fluorescence emission; format: binding; settings: labelled compound; 5 µM protein, 1 µM mant-ATP, pH 8.0, 5 mM MgCl2
T2 sequence (P25519 1-120): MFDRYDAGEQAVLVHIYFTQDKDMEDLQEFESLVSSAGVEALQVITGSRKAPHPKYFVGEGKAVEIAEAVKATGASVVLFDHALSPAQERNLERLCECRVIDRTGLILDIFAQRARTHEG

Structure (SMILES): CNc1ccccc1C(=O)O[C@H]1[C@@H](O)[C@H](n2cnc3c(N)ncnc32)O[C@@H]1COP(=O)(O)OP(=O)(O)OP(=O)(O)O [mant-ATP]
- mant fluorescence emission (ex 355 nm) [1]: HflX-ND1, like the full-length protein, binds mant-ATP
- mant fluorescence emission (ex 355 nm) (HflX-ND1): HflX-ND1, like the full-length protein, binds mant-ATP
